Each molecule was assayed on ACC (acetyl-CoA carboxylase) (assay: p-ACC expression level in L6 cell line by Western blot). Settings: Rattus norvegicus, L6 cells, 2 hours compound treatment, read-out: Activity AC1.3 (ACCp).
Type: cell-based
Procedure: (§1) Evaluation of p-AMPK and p-ACC expression level in L6 cell line by Western-Blot
(§2) This method evaluates the changes of AMP-activated protein kinase (AMPK) and ACC (acetyl-CoA carboxylase) activity by small molecular modulators through detecting the level of p-AMPK and p-ACC proteins in L6 cells using Western blot.
(§3) L6 cells are maintained in DMEM medium supplemented with 10% FBS in 10-cm dishes. Prior to compounds treatment, L6 cells are seeded in 12-well-plates at concentration of 3×10^4 cells per well. After 24 hours of incubation in 12-well plates, L6 cells are differentiated by replacing the 10% FBS-DMEM medium with 2% FBS-DMEM. Differentiation usually takes 5 days, during which the culture medium is changed every 2 days.
(§4) The compound concentrations typically range from 32 μM to 0.5 μM with 2-fold dilution in 2 ml DMEM and 7 doses. The final DMSO concentration is 0.4%. Berberine is used as a positive control at concentration of 16 μM. Before compound treatment, starve L6 cells for 2 hours by replacing the medium with DMEM, and then gently aspirate the media from each well. Add the compounds into the plates and incubate at 37 degree 5% CO2 for 2 hours.
(§5) Prepare lysis buffer (RIPA buffer with protease-inhibitors and phosphorate-inhibitors) and place it on ice. After two hour's compound treatment, aspirate the medium from 12-well plates, add 70 ul lysis buffer to each well and keep the plates on ice for 5 min. Then scrape the cell lysate off the plates and transfer it to 1.5 ml eppendorf tubes. Keep the tube on ice for more 10 min, centrifugate the lysate at 13000 rpm, 4 degrees for 15 min and transfer the supernatant to clean tubes.
(§6) Determine protein concentration for each sample using Quickstart Bradford protein quantitation kit. Mix 20 ug protein sample with 4 times loading buffer, heat them at 100° C. for 5 min, store the sample in −80° C. or perform Western blot assay directly. For Western blot assay, load 20 ug samples and 10 ul Pre-stained Protein Maker into 4-12% SDS-PAGE gradient gel. Run the samples at 100 V in the stacking gel and at 120 V in resolving gel until the Bromophenol dye reaches the bottom. Transfer the electrophoresed proteins to a PVDF membrane using Bio-Rad's Transblot for 120 min at 300 mA. Following the completion of transfer, the membrane is blocked with 5% non-fat milk for 2 hours at room temperature before incubated with primary antibody (p-AMPK and p-ACC) at 4° C. overnight. On the next day wash the membrane twice with TBST, add secondary antibody and incubate for 1 hour at room temperature. Wash the membrane twice with TBST. Develop p-AMPK and p-ACC protein expression level on the film in dark room with Amersham ECL plus kit. The bands of each sample are quantitated by Bio-Rad system, The AC1.3 value is analyzed using Prism 5.0.

Row | SMILES | EC (1.3-fold)
1 | CC1(C)CC(c2cccc(N3CCOCC3)c2)Nc2ccc(C(=O)NS(=O)(=O)C3CC3)cc21 (centres unmarked) [Example 1, Cyclopropanesulfonic acid [4,4-dimethyl-2-(3-morpholin-4-yl-phenyl)-1,2,3,4-tetrahydro-quinoline-6-carbonyl]-amide] | 1.4 µM
2 | CC1(C)CC(c2cc(F)cc(N3CCOCC3)c2)Nc2ccc(C(=O)NS(=O)(=O)C3CC3)cc21 (centres unmarked) [Example 6, Cyclopropanesulfonic acid [2-(3-fluoro-5-morpholin-4-yl-phenyl)-4,4-dimethyl-1,2,3,4-tetrahydro-quinoline-6-carbonyl]-amide] | 3.5 µM
3 | CC1(c2ccccc2)CC(c2ccc(F)c(Cl)c2)Nc2ccc(C(=O)NS(C)(=O)=O)cc21 (centres unmarked) [Example 7, N-[2-(3-chloro-4-fluoro-phenyl)-4-methyl-4-phenyl-1,2,3,4-tetrahydro-quinoline-6-carbonyl]-methanesulfonamide] | < 16 µM
4 | CCCS(=O)(=O)NC(=O)c1ccc2c(c1)C(C)(C)CC(c1ccc(F)c(Cl)c1)N2 (centres unmarked) [Example 8, Propane-1-sulfonic acid [2-(3-chloro-4-fluoro-phenyl)-4,4-dimethyl-1,2,3,4-tetrahydro-quinoline-6-carbonyl]-amide] | < 32 µM
5 | CC(C)S(=O)(=O)NC(=O)c1ccc2c(c1)C(C)(C)CC(c1cccc(N3CCOCC3)c1)N2 (centres unmarked) [Example 9, Propane-2-sulfonic acid [4,4-dimethyl-2-(3-morpholin-4-yl-phenyl)-1,2,3,4-tetrahydro-quinoline-6-carbonyl]-amide] | 4.5 µM
6 | CC1(C)CC(c2cccc(N3CCOCC3)c2)Nc2c(C(=O)NS(C)(=O)=O)cccc21 (centres unmarked) [Example 10, N-[4,4-dimethyl-2-(3-morpholin-4-yl-phenyl)-1,2,3,4-tetrahydro-quinoline-8-carbonyl]-methanesulfonamide] | < 0.2 µM
7 | CC1(C)CC(c2cccc(N3CCOCC3)c2)Nc2c(C(=O)NS(=O)(=O)C3CC3)cccc21 (centres unmarked) [Example 11, Cyclopropanesulfonic acid [4,4-dimethyl-2-(3-morpholin-4-yl-phenyl)-1,2,3,4-tetrahydro-quinoline-8-carbonyl]-amide] | 0.3 µM
8 | CC(C)NS(=O)(=O)c1ccc2c(c1)C(C)(C)CC(c1cccc(N3CCOCC3)c1)N2 (centres unmarked) [Example 13, 4,4-Dimethyl-2-(3-morpholin-4-yl-phenyl)-1,2,3,4-tetrahydro-quinoline-6-sulfonic acid isopropylamide] | 0.4 µM
9 | CC1(C)CC(c2cccc(N3CCNCC3)c2)Nc2ccc(S(=O)(=O)N3CCOCC3)cc21 (centres unmarked) [Example 14, 4,4-Dimethyl-6-(morpholine-4-sulfonyl)-2-(3-piperazin-1-yl-phenyl)-1,2,3,4-tetrahydro-quinoline] | 4.7 µM
10 | CC1(C)CC(c2cccc(C(F)(F)F)c2)Nc2ccc(C(=O)NS(C)(=O)=O)cc21 (centres unmarked) [Example 30, N-[4,4-dimethyl-2-(3-trifluoromethyl-phenyl)-1,2,3,4-tetrahydro-quinoline-6-carbonyl]-methanesulfonamide] | 0.002 µM
11 | CC1(C)CC(c2cccc(C(F)(F)F)c2)Nc2ccc(C(=O)NS(=O)(=O)C3CC3)cc21 (centres unmarked) [Example 31, Cyclopropanesulfonic acid [4,4-dimethyl-2-(3-trifluoromethyl-phenyl)-1,2,3,4-tetrahydro-quinoline-6-carbonyl]-amide] | 2 µM
12 | CC(C)(C)c1ccc(-c2cccc(C3CC(C)(C)c4cc(C(=O)NS(C)(=O)=O)ccc4N3)c2)cc1 (centres unmarked) [Example 39, N-[2-(4′-tert-butyl-biphenyl-3-yl)-4,4-dimethyl-1,2,3,4-tetrahydro-quinoline-6-carbonyl]-methanesulfonamide] | 1.4 µM
13 | CC1(C)CC(c2cccc(-c3nnnn3C3CC3)c2)Nc2ccc(C(=O)NS(=O)(=O)C3CC3)cc21 (centres unmarked) [Example 41, Cyclopropanesulfonic acid {2-[3-(1-cyclopropyl-1H-tetrazol-5-yl)-phenyl]-4,4-dimethyl-1,2,3,4-tetrahydro-quinoline-6-carbonyl}-amide] | 1.16 µM
14 | CC(C)Oc1ccc(-c2cccc(C3CC(C)(C)c4cc(C(=O)NS(C)(=O)=O)ccc4N3)c2)cc1 (centres unmarked) [Example 45, N-[2-(4′-isopropoxy-biphenyl-3-yl)-4,4-dimethyl-1,2,3,4-tetrahydro-quinoline-6-carbonyl]-methanesulfonamide] | < 8 µM
15 | CC(C)Oc1ccc(-c2cccc(C3CC(C)(C)c4cc(C(=O)NS(=O)(=O)C5CC5)ccc4N3)c2)cc1 (centres unmarked) [Example 46, Cyclopropanesulfonic acid [2-(4′-isopropoxy-biphenyl-3-yl)-4,4-dimethyl-1,2,3,4-tetrahydro-quinoline-6-carbonyl]-amide] | < 8 µM
16 | CCc1ccc(N2CCOCC2)cc1C1CC(C)(C)c2cc(C(=O)NS(=O)(=O)C3CC3)ccc2N1 (centres unmarked) [Example 47, Cyclopropanesulfonic acid [2-(2-ethyl-5-morpholin-4-yl-phenyl)-4,4-dimethyl-1,2,3,4-tetrahydro-quinoline-6-carbonyl]-amide] | 62.4 µM
17 | CC1(C)CC(c2cccc(N3CCOCC3)c2)Nc2cc(C(=O)NS(C)(=O)=O)ccc21 (centres unmarked) [Example 55, N-[4,4-dimethyl-2-(3-morpholin-4-yl-phenyl)-1,2,3,4-tetrahydro-quinoline-7-carbonyl]-methanesulfonamide] | 0.7 µM
18 | CC1(C)CC(c2cccc(N3CCN(c4ccccc4F)CC3)c2)Nc2c(C(=O)NS(=O)(=O)C3CC3)cc(F)cc21 (centres unmarked) [Example 60, Cyclopropanesulfonic acid (6-fluoro-2-{3-[4-(2-fluoro-phenyl)-piperazin-1-yl]-phenyl}-4,4-dimethyl-1,2,3,4-tetrahydro-quinoline-8-carbonyl)-amide] | 7.33 µM
19 | CC1(C)CC(c2cccc(N3CCOCC3)c2)Nc2c(C(=O)NS(C)(=O)=O)cc(Cl)cc21 (centres unmarked) [Example 62, N-[6-chloro-4,4-dimethyl-2-(3-morpholin-4-yl-phenyl)-1,2,3,4-tetrahydro-quinoline-8-carbonyl]-methanesulfonamide] | 68 µM
20 | CC1(C)CC(c2cccc(N3CCOCC3)c2)Nc2c(C(=O)NS(=O)(=O)C3CC3)cc(Cl)cc21 (centres unmarked) [Example 63, Cyclopropanesulfonic acid [6-chloro-4,4-dimethyl-2-(3-morpholin-4-yl-phenyl)-1,2,3,4-tetrahydro-quinoline-8-carbonyl]-amide] | 5.2 µM

These molecules were tested on AMP-activated protein kinase (AMPK) (assay: p-AMPK expression level in L6 cell line by Western blot). Settings: L6 cells, 2 hours compound treatment.
Type: cell-based
Procedure: as §1, §2, §3, §4, §5, §6

Row | SMILES | Activity AC1.3 (AMPKp)
21 | CC(C)(Nc1cccc(C2CC(C)(C)c3cc(S(=O)(=O)N4CCOCC4)ccc3N2)c1)C(=O)O (centres unmarked) [Example 82, 2-{3-[4,4-Dimethyl-6-(morpholine-4-sulfonyl)-1,2,3,4-tetrahydro-quinolin-2-yl]-phenylamino}-2-methyl-propionic acid] | 0.02 µM
22 | CC1(C)CC(c2cccc(NC3(C(=O)O)CC3)c2)Nc2ccc(S(=O)(=O)N3CCOCC3)cc21 (centres unmarked) [Example 83, 1-{3-[4,4-Dimethyl-6-(morpholine-4-sulfonyl)-1,2,3,4-tetrahydro-quinolin-2-yl]-phenylamino}-cyclopropanecarboxylic acid] | 0.01 µM
23 | CC1(C)CC(c2cccc(NC3(C(=O)O)CC3)c2)Nc2ccc(S(=O)(=O)NC3CCC3)cc21 (centres unmarked) [Example 84, 1-[3-(6-Cyclobutylsulfamoyl-4,4-dimethyl-1,2,3,4-tetrahydro-quinolin-2-yl)-phenylamino]-cyclopropanecarboxylic acid] | 0.2 µM
24 | CC(C)(Nc1cccc(C2CC(C)(C)c3cc(S(=O)(=O)NC4CCC4)ccc3N2)c1)C(=O)O (centres unmarked) [Example 85, 2-[3-(6-Cyclobutylsulfamoyl-4,4-dimethyl-1,2,3,4-tetrahydro-quinolin-2-yl)-phenylamino]-2-methyl-propionic acid] | 0.03 µM
25 | CC(C)(Nc1cc(F)cc(C2CC(C)(C)c3cc(S(=O)(=O)NC4CCC4)ccc3N2)c1)C(=O)O (centres unmarked) [Example 86, 2-[3-(6-Cyclobutylsulfamoyl-4,4-dimethyl-1,2,3,4-tetrahydro-quinolin-2-yl)-5-fluoro-phenylamino]-2-methyl-propionic acid] | 0.003 µM
26 | CC1(C)CC(c2cc(F)cc(NC3(C(=O)O)CC3)c2)Nc2ccc(S(=O)(=O)NC3CCC3)cc21 (centres unmarked) [Example 87, 1-[3-(6-Cyclobutylsulfamoyl-4,4-dimethyl-1,2,3,4-tetrahydro-quinolin-2-yl)-5-fluoro-phenylamino]-cyclopropanecarboxylic acid] | 0.002 µM

Reference: patent publication US8809369B2, “Tetrahydroquinoline derivatives” (Hoffmann-La Roche Inc., priority 2011, dated 2014)
